# From patent publication US10669272B2, “Substituted naphthyridinone compounds useful as T cell activators” (BRISTOL-MYERS SQUIBB COMPANY, priority 2018, dated 2020)
# Assays:
# naïve human CD8 T cells = experiment: Human CD8 T cells IFN-γ assay; format: cell-based; conditions: Homo sapiens, T-cell, 20 h, normalized to 3 μM reference compound with anti-CD3 plus anti-CD28 as 100% activation; read-out: HuCD8 INFG Normalized EC50;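 also: Naïve human CD8 T cells stimulated with plate-bound anti-CD3 and soluble anti-CD28, IFN-γ in supernatant quantified by AlphaLISA and converted to pg/mL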
# Experimental: Human CD8 T Cells IFN-γ Assay
# Frozen naïve human CD8 T cells were thawed in AIM-V media, incubated for 2 h in 37° C., and counted. The 384-well tissue culture plate was coated overnight at 4° C. with 20 μL anti-human CD3 at 0.05 μg/mL in PBS, which was removed off the plate before 40,000 cells per 40 microliters CD8 T cells with 0.1 μg/mL soluble anti-human CD28 were added to each well. The compounds were transferred using an Echo liquid handler to the cell plate immediately after the cells were plated. After 20 h incubation at 37° C. incubator, 3 microliters per well supernatants transferred into a new 384-well white assay plate for cytokine measurement.
# Interferon-γ (IFN-γ) was quantitated using the AlphLISA kit (Cat # AL217) as described by the manufacturer manual (Perkin Elmer). The counts from each well were converted to IFN-γ concentration (pg/mL).
# human DGKζ = molecular target: T1, human DGKζ (Homo sapiens, UniProt Q13574); experiment: DGKζ LIPGLO assay (extruded liposome substrate), in vitro DGK inhibition; format: biochemical; conditions: liposome (LIPGLO) assay; read-out: DGKz LIPGLO IC50
# T1 construct: TVMV protease cleavage site (C); Hexa-His (C); made in house; host or cells: Sf9 insect cells (baculovirus, Bac-to-Bac)
# human DGKα = molecular target: T2, human DGKα (Homo sapiens, UniProt P23743); experiment: DGKα LIPGLO assay (extruded liposome substrate), in vitro DGK inhibition; format: biochemical; conditions: liposome (LIPGLO) assay; read-out: DGKa LIPGLO IC50
# T2 construct: TVMV protease cleavage site (C); Hexa-His (C); made in house; host or cells: Sf9 insect cells (baculovirus, Bac-to-Bac)
# Human venous whole blood = experiment: Human whole blood IFN-γ assay; format: cell-based; conditions: Homo sapiens, 24 h, human whole blood; normalized to 3 μM reference compound with anti-CD3 plus anti-CD28 as 100% activation; read-out: INFg Whole Blood Normalized Agonist EC50;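 also: blood from healthy donors exposed to compound for 1 h before stimulation with anti-CD3 and anti-CD28 at 1 µg/mL each, IFN-γ quantified in supernatant by AlphaLISA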
# Experimental: Human Whole Blood IFN-γ Assay
# Human venous whole blood (22.5 μL per well), obtained from healthy donors, was pre-treated with compounds for one hour at 37° C. in a humidified 95% air/5% CO2 incubator. The blood was stimulated with 2.5 μL anti-human CD3 and anti-CD28 mAb at a final concentration of 1 μg/mL each for 24 hours at 37° C. IFN-γ in the supernatants was measured using AlphLISA kit (Cat # AL217).
# T2 sequence (P23743 with tags, fused parts or gaps): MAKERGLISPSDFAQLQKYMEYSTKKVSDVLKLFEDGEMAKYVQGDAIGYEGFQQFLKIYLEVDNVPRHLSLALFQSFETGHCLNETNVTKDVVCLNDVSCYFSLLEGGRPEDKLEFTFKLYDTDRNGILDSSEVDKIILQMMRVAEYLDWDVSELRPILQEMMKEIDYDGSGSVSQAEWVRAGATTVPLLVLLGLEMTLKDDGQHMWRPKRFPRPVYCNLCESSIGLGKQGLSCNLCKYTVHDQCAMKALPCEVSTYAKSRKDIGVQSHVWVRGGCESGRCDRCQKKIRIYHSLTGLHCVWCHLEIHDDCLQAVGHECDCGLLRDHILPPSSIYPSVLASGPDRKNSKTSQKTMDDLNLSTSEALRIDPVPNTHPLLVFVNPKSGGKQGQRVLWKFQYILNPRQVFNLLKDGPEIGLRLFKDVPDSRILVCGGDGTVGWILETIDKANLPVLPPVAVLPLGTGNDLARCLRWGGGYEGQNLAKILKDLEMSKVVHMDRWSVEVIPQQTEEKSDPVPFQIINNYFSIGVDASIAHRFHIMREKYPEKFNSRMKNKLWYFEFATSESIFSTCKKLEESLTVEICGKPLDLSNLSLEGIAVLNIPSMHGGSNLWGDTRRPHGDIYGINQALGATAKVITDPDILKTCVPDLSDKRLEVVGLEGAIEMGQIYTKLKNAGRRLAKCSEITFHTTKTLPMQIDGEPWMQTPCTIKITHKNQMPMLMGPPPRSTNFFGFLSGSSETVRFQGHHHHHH
# T1 sequence (Q13574 with tags, fused parts or gaps isoform Q13574-4): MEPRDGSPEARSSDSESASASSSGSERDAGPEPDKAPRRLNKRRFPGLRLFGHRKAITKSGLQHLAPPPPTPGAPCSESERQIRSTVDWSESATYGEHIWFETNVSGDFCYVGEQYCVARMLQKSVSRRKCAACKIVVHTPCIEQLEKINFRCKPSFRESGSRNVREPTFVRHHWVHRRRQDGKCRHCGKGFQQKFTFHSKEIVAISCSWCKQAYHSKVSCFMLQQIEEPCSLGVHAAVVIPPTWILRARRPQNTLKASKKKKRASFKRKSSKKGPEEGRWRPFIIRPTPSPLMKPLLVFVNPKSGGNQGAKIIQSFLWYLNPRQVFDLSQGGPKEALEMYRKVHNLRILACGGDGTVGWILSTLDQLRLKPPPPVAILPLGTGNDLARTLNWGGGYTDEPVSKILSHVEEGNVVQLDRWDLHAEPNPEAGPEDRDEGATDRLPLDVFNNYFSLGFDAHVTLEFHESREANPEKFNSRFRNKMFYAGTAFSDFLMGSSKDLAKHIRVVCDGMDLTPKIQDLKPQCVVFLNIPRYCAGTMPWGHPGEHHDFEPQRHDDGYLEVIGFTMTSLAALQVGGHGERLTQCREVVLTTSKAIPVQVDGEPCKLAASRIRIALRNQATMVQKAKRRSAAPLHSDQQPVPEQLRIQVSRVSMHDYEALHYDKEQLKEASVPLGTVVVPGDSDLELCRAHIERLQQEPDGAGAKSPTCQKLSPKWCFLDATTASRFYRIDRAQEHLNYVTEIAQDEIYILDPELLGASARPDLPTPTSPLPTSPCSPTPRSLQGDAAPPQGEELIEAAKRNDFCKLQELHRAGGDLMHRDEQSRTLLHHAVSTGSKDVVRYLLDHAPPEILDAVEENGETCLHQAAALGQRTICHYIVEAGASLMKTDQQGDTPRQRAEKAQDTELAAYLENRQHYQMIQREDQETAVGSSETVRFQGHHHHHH
structure (smiles),measurement,setting,value
"C[C@@H]1CN(c2cc(=O)n(C)c3ccc(C#N)nc23)[C@@H](C)CN1Cc1c(F)cccc1C#N [Example 269, 8-[(2S,5R)-4-[(2-cyano-6-fluorophenyl)methyl]-2,5-dimethylpiperazin-1-yl]-5-methyl-6-oxo-5,6-dihydro-1,5-naphthyridine-2-carbonitrile]",EC50,naïve human CD8 T cells,1200 nM
same,IC50,human DGKζ,240000 nM
same,IC50,human DGKα,78000 nM
same,EC50,Human venous whole blood,8800 nM
"C[C@@H]1CN(c2cc(=O)n(C)c3ccc(C#N)nc23)[C@@H](C)CN1C(c1cccc(F)c1)c1cccc(F)c1 [Example 270, 8-[(2S,5R)-4-[bis(3-fluorophenyl)methyl]-2,5-dimethylpiperazin-1-yl]-5-methyl-6-oxo-5,6-dihydro-1,5-naphthyridine-2-carbonitrile]",EC50,naïve human CD8 T cells,62 nM
same,IC50,human DGKζ,570 nM
same,IC50,human DGKα,3400 nM
same,EC50,Human venous whole blood,2000 nM
"C[C@@H]1CN(c2cc(=O)n(C)c3ccc(C#N)nc23)[C@@H](C)CN1Cc1c(F)cccc1F [Example 271, 8-[(2S,5R)-4-[(2,6-difluorophenyl)methyl]-2,5-dimethylpiperazin-1-yl]-5-methyl-6-oxo-5,6-dihydro-1,5-naphthyridine-2-carbonitrile]",EC50,naïve human CD8 T cells,550 nM
same,IC50,human DGKζ,1900 nM
same,IC50,human DGKα,130 nM
same,EC50,Human venous whole blood,1400 nM
"C[C@@H]1CN(c2cc(=O)n(C)c3ccc(C#N)nc23)[C@@H](C)CN1C(c1ccccc1)c1cccc(F)c1F (stereo partly drawn) [Example 276, 8-[(2S,5R)-4-[(2,3-difluorophenyl)(phenyl)methyl]-2,5-dimethylpiperazin-1-yl]-5-methyl-6-oxo-5,6-dihydro-1,5-naphthyridine-2-carbonitrile]",EC50,naïve human CD8 T cells,180 nM
same,IC50,human DGKζ,1000 nM
same,IC50,human DGKα,1200 nM
same,EC50,Human venous whole blood,2400 nM
"C[C@@H]1CN(c2cc(=O)n(C)c3ccc(C#N)nc23)[C@@H](C)CN1Cc1ccc(F)cc1F [Example 277, 8-[(2S,5R)-4-[(2,4-difluorophenyl)methyl]-2,5-dimethylpiperazin-1-yl]-5-methyl-6-oxo-5,6-dihydro-1,5-naphthyridine-2-carbonitrile]",EC50,naïve human CD8 T cells,66 nM
same,IC50,human DGKζ,1500 nM
same,IC50,human DGKα,250 nM
same,EC50,Human venous whole blood,840 nM
"C[C@@H]1CN(c2cc(=O)n(C)c3ccc(C#N)nc23)[C@@H](C)CN1Cc1cccc(C(F)(F)F)n1 [Example 278, 8-[(2S,5R)-2,5-dimethyl-4-{[6-(trifluoromethyl)pyridin-2-yl]methyl}piperazin-1-yl]-5-methyl-6-oxo-5,6-dihydro-1,5-naphthyridine-2-carbonitrile]",EC50,naïve human CD8 T cells,2200 nM
same,IC50,human DGKζ,1500 nM
same,IC50,human DGKα,870 nM
same,EC50,Human venous whole blood,3200 nM
"Cc1nc(C(F)(F)F)ccc1CN1C[C@H](C)N(c2cc(=O)n(C)c3ccc(C#N)nc23)C[C@H]1C [Example 279, 8-[(2S,5R)-2,5-dimethyl-4-{[2-methyl-6-(trifluoromethyl)pyridin-3-yl]methyl}piperazin-1-yl]-5-methyl-6-oxo-5,6-dihydro-1,5-naphthyridine-2-carbonitrile]",EC50,naïve human CD8 T cells,1200 nM
same,IC50,human DGKζ,4600 nM
same,IC50,human DGKα,2300 nM
same,EC50,Human venous whole blood,3700 nM
"COc1cc(CN2C[C@H](C)N(c3cc(=O)n(C)c4ccc(C#N)nc34)C[C@H]2C)cc(C(F)(F)F)n1 [Example 280, 8-[(2S,5R)-4-{[2-methoxy-6-(trifluoromethyl)pyridin-4-yl]methyl}-2,5-dimethylpiperazin-1-yl]-5-methyl-6-oxo-5,6-dihydro-1,5-naphthyridine-2-carbonitrile]",EC50,naïve human CD8 T cells,680 nM
same,IC50,human DGKζ,7300 nM
same,IC50,human DGKα,7900 nM
same,EC50,Human venous whole blood,7700 nM
"C[C@@H]1CN(c2cc(=O)n(C)c3ccc(C#N)nc23)[C@@H](C)CN1Cc1ccc(C(F)(F)F)nc1Cl [Example 281, 8-[(2S,5R)-4-{[2-chloro-6-(trifluoromethyl)pyridin-3-yl]methyl}-2,5-dimethylpiperazin-1-yl]-5-methyl-6-oxo-5,6-dihydro-1,5-naphthyridine-2-carbonitrile]",EC50,naïve human CD8 T cells,560 nM
same,IC50,human DGKζ,4400 nM
same,IC50,human DGKα,2800 nM
same,EC50,Human venous whole blood,2700 nM
"C[C@@H]1CN(c2cc(=O)n(C)c3ccc(C#N)nc23)[C@@H](C)CN1C(c1ccccc1)c1cccc(Cl)c1 (stereo partly drawn) [Example 282, 8-[(2S,5R)-4-[(3-chlorophenyl)(phenyl)methyl]-2,5-dimethylpiperazin-1-yl]-5-methyl-6-oxo-5,6-dihydro-1,5-naphthyridine-2-carbonitrile]",EC50,naïve human CD8 T cells,69 nM
same,IC50,human DGKζ,940 nM
same,IC50,human DGKα,1200 nM
same,EC50,Human venous whole blood,3800 nM
"C[C@@H]1CN(c2cc(=O)n(C)c3ccc(C#N)nc23)[C@@H](C)CN1C(c1ccccc1)c1ccc(F)cc1F (stereo partly drawn) [Example 283, 8-[(2S,5R)-4-[(2,4-difluorophenyl)(phenyl)methyl]-2,5-dimethylpiperazin-1-yl]-5-methyl-6-oxo-5,6-dihydro-1,5-naphthyridine-2-carbonitrile]",EC50,naïve human CD8 T cells,68 nM
same,IC50,human DGKζ,1100 nM
same,IC50,human DGKα,650 nM
same,EC50,Human venous whole blood,890 nM
"C[C@@H]1CN(c2cc(=O)n(C)c3ccc(C#N)nc23)[C@@H](C)CN1C(c1ccccc1)c1ccccc1F (stereo partly drawn) [Example 285, 8-[(2S,5R)-4-[(2-fluorophenyl)(phenyl)methyl]-2,5-dimethylpiperazin-1-yl]-5-methyl-6-oxo-5,6-dihydro-1,5-naphthyridine-2-carbonitrile]",EC50,naïve human CD8 T cells,150 nM
same,IC50,human DGKζ,680 nM
same,IC50,human DGKα,270 nM
same,EC50,Human venous whole blood,1500 nM
"C[C@@H]1CN(c2cc(=O)n(C)c3ccc(C#N)nc23)[C@@H](C)CN1Cc1cccc(F)c1F [Example 286, 8-[(2S,5R)-4-[(2,3-difluorophenyl)methyl]-2,5-dimethylpiperazin-1-yl]-5-methyl-6-oxo-5,6-dihydro-1,5-naphthyridine-2-carbonitrile]",EC50,naïve human CD8 T cells,370 nM
same,IC50,human DGKζ,3200 nM
same,IC50,human DGKα,1900 nM
same,EC50,Human venous whole blood,2200 nM
"C[C@@H]1CN(c2cc(=O)n(C)c3ccc(C#N)nc23)[C@@H](C)CN1Cc1ccccc1F [Example 287, 8-[(2S,5R)-4-[(2-fluorophenyl)methyl]-2,5-dimethylpiperazin-1-yl]-5-methyl-6-oxo-5,6-dihydro-1,5-naphthyridine-2-carbonitrile]",EC50,naïve human CD8 T cells,12000 nM
same,IC50,human DGKζ,1600 nM
same,IC50,human DGKα,34 nM
same,EC50,Human venous whole blood,7100 nM
"C[C@@H]1CN(c2cc(=O)n(C)c3ccc(C#N)nc23)[C@@H](C)CN1C(c1ccccc1)c1cc(F)cc(F)c1 (stereo partly drawn) [Example 288, 8-[(2S,5R)-4-[(3,5-difluorophenyl)(phenyl)methyl]-2,5-dimethylpiperazin-1-yl]-5-methyl-6-oxo-5,6-dihydro-1,5-naphthyridine-2-carbonitrile]",EC50,naïve human CD8 T cells,26 nM
same,IC50,human DGKζ,2200 nM
same,IC50,human DGKα,2000 nM
same,EC50,Human venous whole blood,810 nM
"C[C@@H]1CN(c2cc(=O)n(C)c3ccc(C#N)nc23)[C@@H](C)CN1C(c1ccc(F)cc1)c1cc(F)cc(F)c1 (stereo partly drawn) [Example 289, 8-[(2S,5R)-4-[(3,5-difluorophenyl)(4-fluorophenyl)methyl]-2,5-dimethylpiperazin-1-yl]-5-methyl-6-oxo-5,6-dihydro-1,5-naphthyridine-2-carbonitrile]",EC50,naïve human CD8 T cells,220 nM
same,IC50,human DGKζ,760 nM
same,IC50,human DGKα,3000 nM
same,EC50,Human venous whole blood,1000 nM
"C[C@@H]1CN(c2cc(=O)n(C)c3ccc(C#N)nc23)[C@@H](C)CN1Cc1cc(F)cc(F)c1 [Example 290, 8-[(2S,5R)-4-[(3,5-difluorophenyl)methyl]-2,5-dimethylpiperazin-1-yl]-5-methyl-6-oxo-5,6-dihydro-1,5-naphthyridine-2-carbonitrile]",EC50,naïve human CD8 T cells,2000 nM
same,IC50,human DGKζ,3500 nM
same,IC50,human DGKα,1700 nM
same,EC50,Human venous whole blood,7900 nM
